Test results as given in patent US12077503B2, “Substituted cyclic amides and their use as herbicides” (FMC CORPORATION, priority 2015, dated 2024).

What was measured:
Type in all cases: in vivo
[1] = system: ducksalad (Heteranthera limosa); test: Test B flooded paddy test; conditions: Flood, 500 g ai/ha; 0 to 100 scale where 0 is no effect and 100 is complete control; 13 to 15 d
Procedure, shortened: (§1)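 Visual ratings (0 none to 100 complete control) are relative to untreated plants, taken 13–15 d after treatment in a greenhouse. Test material went straight into floodwater standing 3 cm above the soil, kept constant, on plants at the 2-leaf stage.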

rice (Oryra sativa) = test: Test B flooded paddy test; conditions: Flood, 500 g ai/ha; 0 to 100 scale where 0 is no effect and 100 is complete control; 13 to 15 d
Procedure, shortened: as §1

[2] = system: barnyardgrass (Echinochloa crus-galli); test: Test B flooded paddy test; conditions: Flood, 500 g ai/ha; 0 to 100 scale where 0 is no effect and 100 is complete control; 13 to 15 d
Procedure, shortened: as §1

[3] = system: sedge, umbrella (small-flower umbrella sedge, Cyperus difformis); test: Test B flooded paddy test; conditions: Flood, 500 g ai/ha; 0 to 100 scale where 0 is no effect and 100 is complete control; 13 to 15 d
Procedure, shortened: as §1

Kochia (Kochia scoparia) [4] = test: Test A postemergence; conditions: postemergence, 0 to 100 scale (0 no effect, 100 complete control)
Procedure, shortened: (§2)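 Ratings of 0 (no effect) to 100 (complete control) come from visual comparison with untreated controls roughly 10 d after treatment. Test chemicals, formulated in a non-phytotoxic solvent mixture with surfactant, were applied either as a preemergence directed soil spray on seeded soil or postemergence to one- to two-leaf plants 2 to 10 cm tall.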

[5] = system: wheat (Triticum aestivum); test: Test A postemergence; conditions: postemergence, 0 to 100 scale (0 no effect, 100 complete control)
Procedure, shortened: as §2

[6] = system: Galium (catchweed bedstraw, Galium aparine); test: Test A postemergence; conditions: postemergence, 0 to 100 scale (0 no effect, 100 complete control)
Procedure, shortened: as §2

corn (Zea mays) = test: Test A postemergence; conditions: postemergence, 0 to 100 scale (0 no effect, 100 complete control)
Procedure, shortened: as §2

[7] = system: blackgrass (Alopecurus myosuroides); test: Test A postemergence; conditions: postemergence, 0 to 100 scale (0 no effect, 100 complete control)
Procedure, shortened: as §2

[8] = system: pigweed (Amaranthus retroflexus); test: Test A postemergence; conditions: postemergence, 0 to 100 scale (0 no effect, 100 complete control)
Procedure, shortened: as §2

[9] = system: ryegrass, Italian (Italian ryegrass, Lolium multiflorum); test: Test A postemergence; conditions: postemergence, 0 to 100 scale (0 no effect, 100 complete control)
Procedure, shortened: as §2

[10] = system: barnyardgrass (Echinochloa crus-galli); test: Test A postemergence; conditions: postemergence, 0 to 100 scale (0 no effect, 100 complete control)
Procedure, shortened: as §2

[11] = system: giant foxtail (Setaria faberii); test: Test A postemergence; conditions: postemergence, 0 to 100 scale (0 no effect, 100 complete control)
Procedure, shortened: as §2

[12] = system: ragweed (common ragweed, Ambrosia elatior); test: Test A postemergence; conditions: postemergence, 0 to 100 scale (0 no effect, 100 complete control)
Procedure, shortened: as §2

Kochia (Kochia scoparia) [13] = test: Test A preemergence; conditions: preemergence
Procedure, shortened: as §2

[14] = system: pigweed (Amaranthus retroflexus); test: Test A preemergence; conditions: preemergence
[15] = system: ryegrass, Italian (Italian ryegrass, Lolium multiflorum); test: Test A preemergence; conditions: preemergence
Procedure, shortened: as §2

[16] = system: barnyardgrass (Echinochloa crus-galli); test: Test A preemergence; conditions: preemergence
Procedure, shortened: as §2

[17] = system: giant foxtail (Setaria faberii); test: Test A preemergence; conditions: preemergence
Procedure, shortened: as §2

[18] = system: ragweed (common ragweed, Ambrosia elatior); test: Test A preemergence; conditions: preemergence
Procedure, shortened: as §2

[19] = 125 g ai/ha, visual injury after approximately 10 d
[20] = 500 g ai/ha, visual injury, approx. 10 d
[21] = 125 g ai/ha, visual rating after approx. 10 d, 0 to 100 scale where 0 is no effect and 100 is complete control
[22] = 500 g ai/ha, 0 to 100 scale, 0 = no effect, 100 = complete control

| Compound | Plant response rating, Ducksalad [1] | Plant response rating, Rice (rice (Oryra sativa)) | Plant response rating, Barnyardgrass [2] | Plant response rating, Sedge, Umbrella [3] | Plant response rating, Kochia (Kochia (Kochia scoparia) [4]; [19]) | Plant response rating, Kochia (Kochia (Kochia scoparia) [4]; [20]) | Plant response rating, Wheat [5, 19] | Plant response rating, Wheat [5, 20] | Plant response rating, Galium [6, 19] | Plant response rating, Galium [6, 20] | Plant response rating, Corn (corn (Zea mays); [19]) | Plant response rating, Corn (corn (Zea mays); [20]) | Plant response rating, Blackgrass [7, 19] | Plant response rating, Blackgrass [7, 20] | Plant response rating, Pigweed [8, 19] | Plant response rating, Pigweed [8, 20] | Plant response rating, Ryegrass, Italian [9, 19] | Plant response rating, Ryegrass, Italian [9, 20] | Plant response rating, Barnyardgrass [10, 19] | Plant response rating, Barnyardgrass [10, 20] | further results |
| --- | --- | --- | --- | --- | --- | --- | --- | --- | --- | --- | --- | --- | --- | --- | --- | --- | --- | --- | --- | --- | --- |
| O=C1NCC(c2ccc(I)cc2)C1C(=O)Nc1ccc(F)cc1F (racemic) [Compound 701] | 100 | 0 | 65 | 0 | 0 | 0 | 0 | 0 | 0 | 0 | 0 | 0 | 0 | 0 | 0 | 0 | 0 | 0 | 60 | 70 | Plant response rating, Foxtail, Giant [11, 19]: 60; Plant response rating, Foxtail, Giant [11, 20]: 70; Plant response rating, Ragweed [12, 19]: 0; Plant response rating, Ragweed [12, 20]: 0; Plant response rating, Kochia (Kochia (Kochia scoparia) [13]; [21]): 0; Plant response rating, Kochia (Kochia (Kochia scoparia) [13]; [22]): 0; Plant response rating, Pigweed [14, 21]: 0; Plant response rating, Pigweed [14, 22]: 0; Plant response rating, Ryegrass, Italian [15, 21]: 0; Plant response rating, Ryegrass, Italian [15, 22]: 0; Plant response rating, Barnyardgrass [16, 21]: 60; Plant response rating, Barnyardgrass [16, 22]: 90; Plant response rating, Foxtail, Giant [17, 21]: 90; Plant response rating, Foxtail, Giant [17, 22]: 90; Plant response rating, Ragweed [18, 21]: 0; Plant response rating, Ragweed [18, 22]: 0 |
| CC(=O)c1ccccc1NC(=O)C1C(=O)NCC1c1cccc(C(F)(F)F)c1 (racemic) [Compound 706] | 0 | 15 | 0 | 0 | 0 | 0 | 0 | 0 | 0 | 0 | 0 | 0 | 0 | 0 | 0 | 0 | 0 | 0 | 0 | 50 | Plant response rating, Foxtail, Giant [11, 19]: 0; Plant response rating, Foxtail, Giant [11, 20]: 30; Plant response rating, Ragweed [12, 19]: 0; Plant response rating, Ragweed [12, 20]: 0; Plant response rating, Kochia (Kochia (Kochia scoparia) [13]; [21]): 0; Plant response rating, Kochia (Kochia (Kochia scoparia) [13]; [22]): 0; Plant response rating, Pigweed [14, 21]: 0; Plant response rating, Pigweed [14, 22]: 0; Plant response rating, Ryegrass, Italian [15, 21]: 0; Plant response rating, Ryegrass, Italian [15, 22]: 0; Plant response rating, Barnyardgrass [16, 21]: 0; Plant response rating, Barnyardgrass [16, 22]: 70; Plant response rating, Foxtail, Giant [17, 21]: 0; Plant response rating, Foxtail, Giant [17, 22]: 80; Plant response rating, Ragweed [18, 21]: 0; Plant response rating, Ragweed [18, 22]: 0 |
